Assay results reported in PMC9603010 (ACS Bio & Med Chem Au, 2022).
Where a name gives a salt, the structure may show the parent alone.

Each compound was assayed on HEK293T cells. Conditions: 48 h, multiple concentrations.
In the case of `NC(CO)C(=O)NNCc1ccc(O)c(O)c1O` (stereo not drawn) [benserazide, reference compound], the “impact on cell viability” value is reported as “without significant impact on cell viability”.
With `O=C(O[C@@H]1Cc2c(O)cc(O)cc2O[C@@H]1c1cc(O)c(O)c(O)c1)c1cc(O)c(O)c(O)c1` [epigallocatechin gallate] the “impact on cell viability” value was “without significant impact on cell viability”.
For `c1ccc2c(c1)OCC(C1=NCCN1)O2` (stereo not drawn) [idazoxan, reference compound], the “impact on cell viability” value was “without significant impact on cell viability”.
In the case of `COc1c(-c2coc3cc4c(cc3c2=O)CC(O)C(C)(C)O4)ccc2c1C=CC(C)(C)O2` (stereo not drawn) [mundulone], the “impact on cell viability” value is reported as “without significant impact on cell viability”.
With `C=C1C(=O)O[C@H]2[C@H]1CC/C(C)=C/CC[C@@]1(C)O[C@@H]21` [parthenolide] the “impact on cell viability” value was “without significant impact on cell viability”.

Each compound was assayed on SARS-CoV-2 (USA-WA1/2020). Conditions: not given.
Format: cell-based
In the case of `c1ccc2c(c1)OCC(C1=NCCN1)O2` (stereo not drawn) [idazoxan hydrochloride, reference compound], the “reduction of the number of infected cells compared to vehicle” value is reported as “more than 90%”.
